Measured values as given in ChEMBL document CHEMBL1201862, “PubChem BioAssay data set” (2004).
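48-hour exposure; five concentrations; linearly interpolated endpoints. GI50 marks 50% less growth.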 The source made the active and inactive calls. Rule as the data show it: active = GI50 up to about 1.1 µM and inactive = higher.

Key:
Assay in all cases: inhibition of tumour cell growth, NCI panel, 48 h
TK-10 = system: TK-10
OVCAR-8 = system: OVCAR-8
SK-MEL-28 = system: SK-MEL-28
M14 = system: M14
SR = system: SR
786-0 = system: 786-0
CAKI-1 = system: CAKI-1
HCT-15 = system: HCT-15
HL-60 = system: HL-60
SNB-19 = system: SNB-19
SN12C = system: SN12C
NCI-H23 = system: NCI-H23
HCC 2998 = system: HCC 2998
A498 = system: A498
UACC-62 = system: UACC-62
A549 = system: A549
NCI-H460 = system: NCI-H460
U-251 = system: U-251
MDA-MB-435 = system: MDA-MB-435
MCF7 = system: MCF7

| Compound | GI50 (TK-10) | GI50 (OVCAR-8) | GI50 (SK-MEL-28) | GI50 (M14) | GI50 (SR) | GI50 (786-0) | GI50 (CAKI-1) | GI50 (HCT-15) | GI50 (HL-60) | GI50 (SNB-19) | GI50 (SN12C) | GI50 (NCI-H23) | GI50 (HCC 2998) | GI50 (A498) | GI50 (UACC-62) | GI50 (A549) | GI50 (NCI-H460) | GI50 (U-251) | GI50 (MDA-MB-435) | GI50 (MCF7) |
| --- | --- | --- | --- | --- | --- | --- | --- | --- | --- | --- | --- | --- | --- | --- | --- | --- | --- | --- | --- | --- |
| CC1(C(=O)O)CCOc2ccccc21 (stereo not given) | > 100 µM (inactive) | > 100 µM (inactive) | > 100 µM (inactive) | > 100 µM (inactive) | > 100 µM (inactive) | > 100 µM (inactive) | > 100 µM (inactive) | > 100 µM | > 100 µM (inactive) | > 100 µM (inactive) | > 100 µM (inactive) | > 100 µM (inactive) | > 100 µM (inactive) | > 100 µM (inactive) | > 100 µM (inactive) | > 100 µM (inactive) | > 100 µM (inactive) | – | – | – |
| CC(=O)OCC1=C(CCC#N)N2C(=O)C(NC(=O)Cc3cccs3)C2[S+]([O-])C1 (stereo not given) | > 100 µM (inactive) | > 100 µM (inactive) | > 100 µM (inactive) | > 100 µM (inactive) | > 100 µM (inactive) | > 100 µM (inactive) | > 100 µM (inactive) | > 100 µM | > 100 µM (inactive) | > 100 µM (inactive) | > 100 µM (inactive) | > 100 µM (inactive) | > 100 µM (inactive) | > 100 µM (inactive) | > 100 µM (inactive) | > 100 µM (inactive) | > 100 µM (inactive) | > 100 µM (inactive) | – | – |
| COC(=O)/C([Se]c1c(C)cc(C)cc1C)=C(/[Se]c1c(C)cc(C)cc1C)C(=O)OC | > 100 µM (inactive) | > 100 µM (inactive) | – | > 100 µM (inactive) | 39.9 µM (inactive) | > 100 µM (inactive) | > 100 µM (inactive) | 81.3 µM | > 100 µM (inactive) | > 100 µM (inactive) | > 100 µM (inactive) | > 100 µM (inactive) | > 100 µM (inactive) | > 100 µM (inactive) | > 100 µM (inactive) | > 100 µM (inactive) | 78.7 µM (inactive) | > 100 µM (inactive) | – | – |
| Ic1cc2c(cc1C1SCCCS1)OCO2 | > 100 µM (inactive) | > 100 µM (inactive) | > 100 µM (inactive) | > 100 µM (inactive) | > 100 µM (inactive) | > 100 µM (inactive) | > 100 µM (inactive) | > 100 µM | > 100 µM (inactive) | > 100 µM (inactive) | > 100 µM (inactive) | 64.7 µM (inactive) | > 100 µM (inactive) | > 100 µM (inactive) | > 100 µM (inactive) | > 100 µM (inactive) | > 100 µM (inactive) | > 100 µM (inactive) | – | – |
| CCC12C=CCN3CC[C@]4(C(=C(C(=O)OC)[C@@H]1Nc1ncnc5c1ncn5C1OC(COC(C)=O)C(OC(C)=O)C1OC(C)=O)Nc1ccccc14)C32 (stereo not given in full) | 2.87 µM (inactive) | 2.18 µM (inactive) | 3.52 µM (inactive) | 2.62 µM (inactive) | 2.34 µM (inactive) | 1.94 µM (inactive) | 3.42 µM (inactive) | 3.04 µM | 2.65 µM (inactive) | 5.62 µM (inactive) | 2.01 µM (inactive) | 1.97 µM (inactive) | 1.82 µM (inactive) | 2.04 µM (inactive) | 3.11 µM (inactive) | 3.53 µM (inactive) | 2.51 µM (inactive) | 2.19 µM (inactive) | – | – |
| Cc1ccc(C[N+](C)(C)N)cc1C | > 10 µM (inactive) | > 10 µM (inactive) | > 10 µM (inactive) | > 10 µM (inactive) | – | > 10 µM (inactive) | > 10 µM (inactive) | > 10 µM | > 10 µM (inactive) | > 10 µM (inactive) | > 10 µM (inactive) | > 10 µM (inactive) | > 10 µM (inactive) | > 10 µM (inactive) | > 10 µM (inactive) | > 10 µM (inactive) | > 10 µM (inactive) | > 10 µM (inactive) | > 10 µM (inactive) | > 10 µM (inactive) |
| C=C1CCCC2OC(OC)CCC12 (stereo not given) | > 100 µM (inactive) | > 100 µM (inactive) | – | > 100 µM (inactive) | > 100 µM (inactive) | > 100 µM (inactive) | > 100 µM (inactive) | > 100 µM | > 100 µM (inactive) | > 100 µM (inactive) | > 100 µM (inactive) | > 100 µM (inactive) | > 100 µM (inactive) | > 100 µM (inactive) | > 100 µM (inactive) | > 100 µM (inactive) | > 100 µM (inactive) | > 100 µM (inactive) | – | – |
| COc1cc(OC)c2c(c1)C(=O)C(CC1(C)OCCCO1)=CC2=O | 12.5 µM (inactive) | 9.27 µM (inactive) | 11.6 µM (inactive) | 13 µM (inactive) | 1.29 µM (inactive) | 9.77 µM (inactive) | 8 µM (inactive) | 3.92 µM | 2.17 µM (inactive) | 18.2 µM (inactive) | 14 µM (inactive) | 13.2 µM (inactive) | 17.9 µM (inactive) | 18.4 µM (inactive) | 5 µM (inactive) | 18.9 µM (inactive) | 18.6 µM (inactive) | 17.4 µM (inactive) | – | – |
| CCCCCCCCCCOC1C(C(C)OCCCN(C)C)OC2OC3(CCCCC3)OC21 (stereo not given) | 23.1 µM (inactive) | 18.8 µM (inactive) | 12.2 µM (inactive) | 3.33 µM (inactive) | – | 16.5 µM (inactive) | 13.7 µM (inactive) | 1.36 µM | 6.37 µM (inactive) | 12.4 µM (inactive) | 16.3 µM (inactive) | 10.2 µM (inactive) | 13.3 µM (inactive) | – | 13.3 µM (inactive) | 15.4 µM (inactive) | 3.08 µM (inactive) | 14.5 µM (inactive) | 16.2 µM (inactive) | 26.2 µM (inactive) |
| O=C1C(C(O)(C(F)(F)Cl)C(F)(F)Cl)CCCC1C(O)(C(F)(F)Cl)C(F)(F)Cl (stereo not given) | > 10 µM (inactive) | > 10 µM (inactive) | > 10 µM (inactive) | > 10 µM (inactive) | – | > 10 µM (inactive) | > 10 µM (inactive) | > 10 µM | – | > 10 µM (inactive) | – | > 10 µM (inactive) | > 10 µM (inactive) | > 10 µM (inactive) | > 10 µM (inactive) | > 10 µM (inactive) | > 10 µM (inactive) | > 10 µM (inactive) | > 10 µM (inactive) | > 10 µM (inactive) |
| Oc1ccc2ccccc2c1/N=N/c1cc(Cl)ccc1Cl | 16 µM (inactive) | 10.4 µM (inactive) | > 50 µM (inactive) | 14.6 µM (inactive) | – | 9.14 µM (inactive) | 34.4 µM (inactive) | > 50 µM | 22.6 µM (inactive) | 15.8 µM (inactive) | 13.3 µM (inactive) | 44.5 µM (inactive) | – | – | 15.9 µM (inactive) | 17 µM (inactive) | – | 9.16 µM (inactive) | > 50 µM (inactive) | – |
| C[N+]1(C)C2Cc3ccccc3C1Cc1ccccc12 | > 100 µM (inactive) | > 100 µM (inactive) | > 100 µM (inactive) | > 100 µM (inactive) | – | > 100 µM (inactive) | – | > 100 µM | > 100 µM (inactive) | > 100 µM (inactive) | > 100 µM (inactive) | > 100 µM (inactive) | > 100 µM (inactive) | > 100 µM (inactive) | 71.6 µM (inactive) | > 100 µM (inactive) | > 100 µM (inactive) | > 100 µM (inactive) | > 100 µM (inactive) | > 100 µM (inactive) |
